# Assay results: patent US6455540B1, “Methods of use of quinolone compounds against anaerobic pathogenic bacteria” (priority 1999, dated 2002)
# Assays:
# Experiment in all cases: Agar dilution MIC
# Clostridium ramosum = assay type: cell-based; conditions: 10 isolates
# Clostridium dfficile = assay type: cell-based, Clostridium difficile; conditions: 14 isolates
# [1] = tested on: Prevotella buccae-oris group; assay type: cell-based; conditions: 22 isolates
# [2] = tested on: Prevotella melaninogenica; assay type: cell-based; conditions: Prevotella melaninogenica, 12 isolates
# [3] = tested on: Actinomyces odontolyticus; assay type: cell-based; conditions: Schaalia odontolytica, 10 isolates
# Prevotella intermedia = assay type: cell-based; conditions: 11 isolates
# [4] = tested on: Peptostreptococcus magnus; assay type: cell-based; conditions: 13 isolates
# Clostridium inocuum = assay type: cell-based, Clostridium innocuum; conditions: 11 isolates
# [5] = tested on: Peptostreptococcus asaccharolyticus; assay type: cell-based; conditions: Peptoniphilus asaccharolyticus, 11 isolates
# [6] = tested on: Prevotella heparinolytica; assay type: cell-based; conditions: 16 isolates
# [7] = tested on: Porphyromonas asaccharolyticus; assay type: cell-based, Porphyromonas asaccharolytica; conditions: Porphyromonas, 11 isolates
# Fusobacterium russii = assay type: cell-based; conditions: Fusobacterium russii; read-out: Minimal Inhibitory Concentration 90% (MIC90)
# [8] = tested on: Anaerobiospirillum thomasii; assay type: cell-based; conditions: 13 isolates
# Bacteroides ureolyticus = assay type: cell-based; conditions: 17 isolates
# Actinomyces israelii = assay type: cell-based; conditions: 6 isolates
# Porphyromonas macaccae = assay type: cell-based; conditions: Porphyromonas, read-out: Minimal Inhibitory Concentration 50% (MIC50); 13 isolates
# Prevotella bivia = assay type: cell-based; conditions: 21 isolates
# Veillonella spp. = assay type: cell-based; conditions: 24 isolates
# Porphyromonas canoris = assay type: cell-based; conditions: Porphyromonas canoris, 10 isolates
# Bacteroides gracilis = assay type: cell-based, Bacteroides gracilis (Campylobacter gracilis); conditions: Campylobacter gracilis, 11 isolates
# [9] = tested on: Anaerobiospirillum succiniciproducens; assay type: cell-based; conditions: 3 isolates
# Fusobacterium varium = assay type: cell-based; conditions: Fusobacterium varium, 17 isolates
# [10] = tested on: Prevotella denticola/loeschii group; assay type: cell-based; conditions: 6 isolates
# [11] = tested on: Fusobacterium spp group 1; assay type: cell-based; conditions: Fusobacterium, 19 isolates
# [12] = tested on: Fusobacterium spp. group 2; assay type: cell-based, Fusobacterium mortiferum, necrogenes, ulcerans; conditions: Fusobacterium, 12 isolates
# Porphyromonas gingivalis = assay type: cell-based; conditions: Porphyromonas gingivalis, 13 isolates
# Bacteroides tectum = assay type: cell-based; conditions: Bacteroides pyogenes, 22 isolates
# [13] = tested on: Clostridium clostridioforme; assay type: cell-based; conditions: 11 isolates
# [14] = tested on: Peptostreptococcus prevotii; assay type: cell-based; conditions: Anaerococcus prevotii, read-out: Minimal Inhibitory Concentration 50% (MIC50); 9 isolates
# Porphyromonas spp. = assay type: cell-based, Porphyromonas cangingivalis, cansulci, circumdentaria, levii; conditions: Porphyromonas, read-out: Minimal Inhibitory Concentration 50% (MIC50); 11 isolates
# [15] = tested on: Peptostreptococcus micros; assay type: cell-based; conditions: 12 isolates
# [16] = read-out: Minimal Inhibitory Concentration 90% (MIC90)
# [17] = read-out: Minimal Inhibitory Concentration 50% (MIC50)
# [18] = Clostridium, read-out: Minimal Inhibitory Concentration 90% (MIC90)
smiles,measurement,setting,value
Cc1ncc([N+](=O)[O-])n1CCO [Metronidazole],Minimal Inhibitory Concentration Range,Clostridium ramosum,1 µg/mL
same,MIC50,"Clostridium ramosum; Thomasclavelia ramosa, read-out: Minimal Inhibitory Concentration 50% (MIC50)",1 µg/mL
same,MIC90,"Clostridium ramosum; Thomasclavelia ramosa, read-out: Minimal Inhibitory Concentration 90% (MIC90)",1 µg/mL
same,Minimal Inhibitory Concentration Range,Clostridium dfficile,0.25 to 1 µg/mL
same,Minimal Inhibitory Concentration Range,[1],0.5 to 4 µg/mL
same,MIC90,"[1]; Prevotella, read-out: Minimal Inhibitory Concentration 90% (MIC90)",2 µg/mL
same,MIC50,"[1]; Prevotella, read-out: Minimal Inhibitory Concentration 50% (MIC50)",1 µg/mL
same,MIC90,[2]; [16],1 µg/mL
same,MIC50,[2]; [17],0.5 µg/mL
same,MIC90,[3]; [16],32 µg/mL
same,MIC50,[3]; [17],16 µg/mL
same,Minimal Inhibitory Concentration Range,Prevotella intermedia,0.03 to 1 µg/mL
same,MIC90,"Prevotella intermedia; Prevotella intermedia, read-out: Minimal Inhibitory Concentration 90% (MIC90)",1 µg/mL
same,MIC50,"Prevotella intermedia; Prevotella intermedia, read-out: Minimal Inhibitory Concentration 50% (MIC50)",0.5 µg/mL
same,Minimal Inhibitory Concentration Range,[4],0.25 to 2 µg/mL
same,MIC50,"[4]; Finegoldia magna, read-out: Minimal Inhibitory Concentration 50% (MIC50)",0.5 µg/mL
same,MIC90,"[4]; Finegoldia magna, read-out: Minimal Inhibitory Concentration 90% (MIC90)",0.5 µg/mL
same,Minimal Inhibitory Concentration Range,Clostridium inocuum,0.5 to 2 µg/mL
same,MIC90,Clostridium inocuum; [18],1 µg/mL
same,MIC50,"Clostridium inocuum; Clostridium, read-out: Minimal Inhibitory Concentration 50% (MIC50)",0.5 µg/mL
same,MIC50,[5]; [17],0.5 µg/mL
same,MIC90,[5]; [16],1 µg/mL
same,Minimal Inhibitory Concentration Range,[6],0.06 to 1 µg/mL
same,MIC90,"[6]; Prevotella heparinolytica, read-out: Minimal Inhibitory Concentration 90% (MIC90)",1 µg/mL
same,MIC50,"[6]; Prevotella heparinolytica, read-out: Minimal Inhibitory Concentration 50% (MIC50)",0.5 µg/mL
same,MIC50,[7]; [17],≤ 0.015 µg/mL
same,MIC90,[7]; [16],≤ 0.015 µg/mL
same,MIC90,Fusobacterium russii,0.25 µg/mL
same,Minimal Inhibitory Concentration Range,[8],1 to 4 µg/mL
same,MIC50,"[8]; Anaerobiospirillum thomasii, read-out: Minimal Inhibitory Concentration 50% (MIC50)",2 µg/mL
same,MIC90,"[8]; Anaerobiospirillum thomasii, read-out: Minimal Inhibitory Concentration 90% (MIC90)",4 µg/mL
same,Minimal Inhibitory Concentration Range,Bacteroides ureolyticus,0.06 to 2 µg/mL
same,MIC90,"Bacteroides ureolyticus; Campylobacter ureolyticus, read-out: Minimal Inhibitory Concentration 90% (MIC90)",1 µg/mL
same,MIC50,"Bacteroides ureolyticus; Campylobacter ureolyticus, read-out: Minimal Inhibitory Concentration 50% (MIC50)",0.25 µg/mL
same,Minimal Inhibitory Concentration Range,Actinomyces israelii,1 to 32 µg/mL
same,MIC50,"Actinomyces israelii; Actinomyces israelii, read-out: Minimal Inhibitory Concentration 50% (MIC50)",4 µg/mL
same,MIC50,Porphyromonas macaccae,0.06 µg/mL
same,Minimal Inhibitory Concentration Range,Prevotella bivia,0.5 to 4 µg/mL
same,MIC90,"Prevotella bivia; Prevotella bivia, read-out: Minimal Inhibitory Concentration 90% (MIC90)",4 µg/mL
same,MIC50,"Prevotella bivia; Prevotella bivia, read-out: Minimal Inhibitory Concentration 50% (MIC50)",2 µg/mL
same,Minimal Inhibitory Concentration Range,Veillonella spp.,0.25 to 2 µg/mL
same,MIC90,"Veillonella spp.; Veillonella, read-out: Minimal Inhibitory Concentration 90% (MIC90)",2 µg/mL
same,MIC50,"Veillonella spp.; Veillonella, read-out: Minimal Inhibitory Concentration 50% (MIC50)",1 µg/mL
same,MIC50,Porphyromonas canoris; [17],0.25 µg/mL
same,MIC90,Porphyromonas canoris; [16],0.25 µg/mL
same,MIC90,Bacteroides gracilis; [16],> 32 µg/mL
same,MIC50,Bacteroides gracilis; [17],0.5 µg/mL
same,Minimal Inhibitory Concentration Range,[9],4 to 8 µg/mL
same,MIC50,"[9]; Anaerobiospirillum succiniciproducens, read-out: Minimal Inhibitory Concentration 50% (MIC50)",8 µg/mL
same,MIC50,Fusobacterium varium; [17],1 µg/mL
same,MIC90,Fusobacterium varium; [16],2 µg/mL
same,Minimal Inhibitory Concentration Range,[10],0.5 to 1 µg/mL
same,MIC50,"[10]; Prevotella denticola, read-out: Minimal Inhibitory Concentration 50% (MIC50)",1 µg/mL
same,MIC50,"[11]; GROUP1, read-out: Minimal Inhibitory Concentration 50% (MIC50)",0.25 µg/mL
same,MIC90,"[11]; GROUP1, read-out: Minimal Inhibitory Concentration 90% (MIC90)",4 µg/mL
same,MIC50,[12]; [17],0.5 µg/mL
same,MIC90,[12]; [16],1 µg/mL
same,MIC50,Porphyromonas gingivalis; [17],≤ 0.015 µg/mL
same,MIC90,Porphyromonas gingivalis; [16],0.03 µg/mL
same,MIC90,Bacteroides tectum; [16],0.5 µg/mL
same,MIC50,Bacteroides tectum; [17],0.5 µg/mL
same,Minimal Inhibitory Concentration Range,[13],0.03 to 1 µg/mL
same,MIC90,[13]; [18],0.5 µg/mL
same,MIC50,[14],0.5 µg/mL
same,MIC50,Porphyromonas spp.,0.03 µg/mL
same,Minimal Inhibitory Concentration Range,[15],0.03 to 0.25 µg/mL
same,MIC50,"[15]; Parvimonas micra, read-out: Minimal Inhibitory Concentration 50% (MIC50)",0.25 µg/mL
same,MIC90,"[15]; Parvimonas micra, read-out: Minimal Inhibitory Concentration 90% (MIC90)",0.25 µg/mL
